Measurements published in PMC8453901, “GLPG1205, a GPR84 Modulator: Safety, Pharmacokinetics, and Pharmacodynamics in Healthy Subjects” (Clinical Pharmacology in Drug Development, 2021).

Tests used:
[1] = Safety across both studies and all dose groups; type: in vivo, human; conditions: both studies
Experimental: Safety and tolerability were assessed on the basis of adverse events (AEs), which were monitored throughout both studies. Additional safety assessments included vital signs (including supine [and standing in study 2] heart rate, systolic and diastolic blood pressure, and oral body temperature), 12‐lead electrocardiogram (ECG), clinical laboratory tests (hematology, coagulation [study 2 only], serum/plasma chemistry, urinalysis, urine drug screen, serology, and alcohol breath test), and a comprehensive physical examination. In the SAD part of study 1, clinical laboratory tests, physical examination, and vital signs were assessed at the screening visit, at the time of dosing (0 hours after dose), 24 hours after dosing and at follow‐up (7 to 10 days after the final dose). Vital signs were additionally observed 2 hours after dosing, and the 12‐lead ECG was additionally completed at 1, 2, 6, 8, and 12 hours after dosing. In the MAD part of study 1, all additional safety assessments were performed at screening; days 1, 2, 8, 14, and 15; and at follow‐up. In study 2, additional safety assessments were performed at screening (between 21 and 2 days before the first study drug administration); days 1, 2, 5, 10, 14, 15, and 20 (clinical laboratory tests were not performed on day 20); at early discontinuation; and at follow‐up. For study 2, renal function tests (measurement of estimated creatinine clearance rate using the Cockcroft‐Gault equation) were also included in the clinical laboratory tests for safety assessment.
In both studies, the safety analysis was descriptive and focused on changes from baseline and treatment‐emergent findings.

[2] = tested on: CYP2C9; set-up: method as in data on file at Galapagos, 8, 9; conditions: 100 mg once daily, healthy male subjects; ref data on file at Galapagos, 8, 9; cited from earlier work

SMILES: O=c1nc(OC[C@@H]2COCCO2)cc2n1CCc1cc(C#CC3CC3)ccc1-2 [GLPG1205, 9‐cyclopropylethynyl‐2‐((S)‐1‐[1,4]dioxan‐2‐ylmethoxy)‐6,7‐dihydropyrimido[6,1‐a]isoquinolin‐4‐one]
- ECG and vital signs [1]: no clinically significant trends
- deaths or serious AEs [1]: No deaths or serious AEs occurred
- subjects with headache (TEAE) ([1]; all GLPG1205 dose groups): 17 subjects
- subjects with nausea (TEAE) ([1]; all GLPG1205 dose groups): 12 subjects
- subjects with treatment-emergent AEs ([1]; all GLPG1205 dose groups): 44 subjects
- effect on exposure of CYP2C9 [2]: did not affect the exposure
